Assay results: ChEMBL document CHEMBL3217718, “Synthesis, radical scavenging activity and structureactivity relationship of uric acid analogs” (Medchemcomm, 2013)
Converted amounts (≈) assume the structure as drawn. The source made the active and inactive calls. The rule behind the calls is not given here.

Tests used:
HL-60 = experiment: Cytotoxicity against human HL60 cells assessed as cell viability up to 120 uM after 24 hrs by trypan blue assay; assay type: cell-based; conditions: hl-60, 24 h
[1] = Solubility of the compound in PBS buffer at pH 7.4 at 37 degC; assay type: physicochemical
[2] = system: Radical scavenging activity; experiment: Antioxidant activity assessed as DPPH radical scavenging rate constant measured for 60 secs by spectrophotometric analysis; assay type: functional
[3] = system: Radical scavenging activity; experiment: Antioxidant activity assessed as DPPH radical scavenging activity at 500 uM measured for 60 secs by spectrophotometric analysis; assay type: functional
[4] = Solubility of the compound in serum at pH 7.4; assay type: ADME

SMILES | Activity [2] [×10³ /M/s] | Activity [3] | also measured
O=c1[nH]c2ccc(O)cc2[nH]1 | 110 |  | Activity (HL-60): Non-toxic; solubility [1]: 65 µg/mL (≈ 433 µM)
O=C1Cc2ccc(O)cc2N1 | 0.93 |  | 
Oc1cccc2c1CCN2 | 0.21 |  | 
Oc1ccc2[nH]ccc2c1 | 2.6 |  | 
Oc1ccc2cc[nH]c2c1 | 11 |  | 
O=C1Cc2cccc(O)c2N1 | 0.12 |  | 
O=c1[nH]c2ccc(O)nc2[nH]1 | 71 |  | Activity (HL-60): Non-toxic; solubility [1]: 82 µg/mL (≈ 543 µM)
O=C1Cc2ccccc2N1 |  | inactive | 
O=c1[nH]c2cccc(O)c2[nH]1 | 0.37 |  | 
O=C1Cc2cc(O)ccc2N1 | 11 |  | Activity (HL-60): Non-toxic; solubility [1]: 225 µg/mL (≈ 1510 µM)
COc1ccc2[nH]c(=O)[nH]c2n1 |  | inactive | 
COc1ccc2[nH]c(=O)[nH]c2c1 |  | inactive | 
Oc1ccc(O)cc1 [HYDROQUINONE] | 4.4 |  | Activity (HL-60): Toxic
O=c1[nH]c(=O)c2[nH]c(=O)[nH]c2[nH]1 [URIC ACID] |  |  | Activity (HL-60): Non-toxic; solubility [1]: 53 µg/mL (≈ 315 µM)
[Na+].[O-]c1nc2c(O)nc(O)nc2[nH]1 | 0.7 |  | solubility [4]: 70 µg/mL
CC1=NN(c2ccccc2)C(=O)C1 | 72 |  | 
Nc1ccc(O)cc1 [4-AMINOPHENOL] | 310 |  | Activity (HL-60): Toxic
O=c1[nH]c2ccccc2[nH]1 |  | inactive | 
O=C1Cc2ccccc2C1 |  | inactive | 
c1ccc2[nH]cnc2c1 |  | inactive | 
O=c1[nH]c2ccc(O)cc2o1 | 8.7 |  | 
Oc1ccc2c(c1)CCC2 |  | inactive | 
